Series [1] deals with A549. The series can be described thus: Anticancer activity against human A549 cells assessed as cell growth inhibition incubated for 48 hrs by CCK8 assay. In kind it is functional, cell-based. The settings on record: A549, 48 h. For orientation: Tetrazolium dyes change colour on reduction, which living cells bring about.
Series [2] has as its system Mycobacterium tuberculosis. The series can be described thus: Antimycobacterial activity against Mycobacterium tuberculosis H37Rv by test tube dilution technique. The format is functional.
The subject of series [3] is Mus musculus. The series can be described thus: Anticonvulsant activity in ip dosed mouse assessed as neurotoxicity measured after 15 mins. In kind it is functional. The settings on record: 0.25 h.
Series [4] can be described thus: Protection index, ratio of TD50 for neurotoxicity in ip dosed mouse to ED50 for anticonvulsant activity in ip dosed mouse. In kind it is toxicity, organism-based. The following applies: in vivo, read-out: Ratio TD50/ED50.
Series [5] deals with PC-3. The series can be described thus: Anticancer activity against human PC-3 cells assessed as cell growth inhibition incubated for 24 hrs by MTT assay. The following applies: PC-3, 24 h. In kind it is functional, cell-based.
Series [6] relates to HCT-116. The series can be described thus: Anticancer activity against human HCT-116 cells assessed as cell growth inhibition incubated for 24 hrs by MTT assay. The format is functional, cell-based. The following applies: HCT-116, 24 h.
In series [7] the test system is MCF7. The series can be described thus: Anticancer activity against human MCF7 cells assessed as cell growth inhibition incubated for 24 hrs by MTT assay. In kind it is functional, cell-based. The settings on record: MCF7, 24 h.
Series [8] has as its system A549. The series can be described thus: Anticancer activity against human A549 cells assessed as cell growth inhibition incubated for 24 hrs by MTT assay. In kind it is functional, cell-based. The following applies: A549, 24 h.
The test system of series [9] is Mus musculus. Briefly: Anticonvulsant activity in po dosed mouse assessed as MES-induced seizures. In kind it is functional.
Series [10] in a line: Protection index, ratio of TD50 for neurotoxicity in po dosed mouse to ED50 for anticonvulsant activity in ip dosed mouse. In kind it is toxicity, organism-based. The following applies: in vivo, read-out: Ratio TD50/ED50.
Series [11] deals with HCT-116. Briefly: Anticancer activity against human HCT-116 cells assessed as cell growth inhibition.
Series [12] relates to Human alphaherpesvirus 1. The series can be described thus: Antiviral activity against Human alphaherpesvirus 1 assessed as plaque reduction at […] relative to control. In kind it is functional. Set-up: dose or concentration left out as unconfirmed.
Series [13] relates to A549. The series can be described thus: Antiproliferative activity against human A549 cells assessed as cell growth inhibition by MTT assay. In kind it is functional, cell-based.
The subject of series [14] is K562. The series can be described thus: Antiproliferative activity against human K562 cells assessed as cell growth inhibition by MTT assay. The format is functional, cell-based.
Series [15] relates to MDA-MB-231. The series can be described thus: Antiproliferative activity against human MDA-MB-231 cells assessed as cell growth inhibition by MTT assay. The format is functional, cell-based.
Series [16] deals with DU-145. Briefly: Anticancer activity against human DU-145 cells assessed as cell growth inhibition incubated for 48 hrs by MTT assay. The format is functional, cell-based. The settings on record: DU-145, 48 h.
Series [17] deals with A549. The series can be described thus: Anticancer activity against human A549 cells assessed as cell growth inhibition incubated for 48 hrs by MTT assay. In kind it is functional, cell-based. The following applies: A549, 48 h.
The subject of series [18] is BT-20. Briefly: Potency index, ratio of test compound IC50 to cisplatin IC50 for antiproliferative against human BT-20 cells. In kind it is functional.
Series [19] concerns BT-20. The series can be described thus: Anticancer activity against human BT-20 cells assessed as cell growth inhibition incubated for 48 hrs by MTT assay. In kind it is functional, cell-based. The settings on record: BT-20, 48 h.
The nature of series [20]: Anticancer activity against human SK-MEL-128 cells assessed as cell growth inhibition incubated for 48 hrs by MTT assay. The settings on record: SK-MEL-128, 48 h. In kind it is functional, cell-based.
Series [21] is described as follows: Oral bioavailability in mouse relative to control. The format is ADME, organism-based. The settings on record: in vivo.
Series [22] in a line: Inhibition of Mycobacterium tuberculosis Shikimate dehydrogenase […]. The format is functional.
For series [23], the system named is Rattus norvegicus. Briefly: Antiinflammatory activity in rat assessed as reduction in xylene induced edema at 10 mg/kg, po by CPE test relative to control. Set-up: scale not given: the % may be the effect or the level left. In kind it is functional.
Series [24] in a line: Inhibition of Plasmodium falciparum dihydrofolate reductase measured after 48 hrs.
Series [25] addresses Bifunctional dihydrofolate reductase-thymidylate synthase (Plasmodium vivax, UniProt O02604). Briefly: Inhibition of Plasmodium vivax dihydrofolate reductase measured after 48 hrs.
The subject of series [26] is HCT-116. The series can be described thus: Antiproliferative activity against human HCT-116 cells assessed as cell viability incubated for 48 hrs by MTT assay. The following applies: HCT-116, 48 h.
Series [27] deals with Trypanosoma brucei. The series can be described thus: […] activity against Trypanosoma brucei assessed as […] growth inhibition. In kind it is functional, organism-based.
Series [28] deals with Rattus norvegicus. Briefly: Antiinflammatory activity in rat assessed as reduction in xylene induced edema relative to control. In kind it is functional. Set-up: scale not given: the % may be the effect or the level left.
The species named for series [29] is Mus musculus. Briefly: Antiseizure activity against ScPTZ-induced seizure in mouse. The format is functional. The following applies: route sc.
The species entered for series [30] is Mus musculus. The series can be described thus: Anticonvulsant activity in mouse assessed as MES-induced seizures measured after 30 mins. The format is functional. The settings on record: 0.5 h.
The test system of series [31] is Cytomegalovirus. The series can be described thus: Antiviral activity against Cytomegalovirus infected in HFF cells […]. The settings on record: Human betaherpesvirus 5, HFF. In kind it is functional, organism-based.
In series [32] the test system is Cytomegalovirus. Briefly: Potency index, ratio of test compound IC50 to ganciclovir IC50 for antiviral activity against Cytomegalovirus. The format is functional.

In brackets after ≈: the same amount, converted by molar mass. Some results are limits rather than exact numbers.

Sequence of Bifunctional dihydrofolate reductase-thymidylate synthase (O02604 whole entry): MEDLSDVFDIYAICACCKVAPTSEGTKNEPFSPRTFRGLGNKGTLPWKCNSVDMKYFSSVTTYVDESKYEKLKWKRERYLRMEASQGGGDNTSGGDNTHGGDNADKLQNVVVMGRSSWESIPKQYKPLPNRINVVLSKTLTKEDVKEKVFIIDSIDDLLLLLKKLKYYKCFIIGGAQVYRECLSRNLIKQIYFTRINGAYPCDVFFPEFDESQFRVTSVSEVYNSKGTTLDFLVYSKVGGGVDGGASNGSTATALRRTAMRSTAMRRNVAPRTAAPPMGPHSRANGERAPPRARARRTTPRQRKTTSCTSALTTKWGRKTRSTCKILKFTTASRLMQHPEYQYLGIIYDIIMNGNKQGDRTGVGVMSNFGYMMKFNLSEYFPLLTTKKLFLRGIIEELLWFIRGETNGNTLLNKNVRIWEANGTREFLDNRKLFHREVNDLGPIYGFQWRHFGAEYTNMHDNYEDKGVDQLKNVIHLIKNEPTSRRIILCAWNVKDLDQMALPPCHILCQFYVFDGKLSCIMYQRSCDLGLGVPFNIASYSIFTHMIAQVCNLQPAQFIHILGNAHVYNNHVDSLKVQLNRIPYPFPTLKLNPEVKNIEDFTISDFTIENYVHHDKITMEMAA

What is called IC50 is the concentration that inhibits the measured activity by half. With `CCCCSSc1nnc(-c2ccccc2)n1N`, the IC50 in [1] was 2.79 µM.

The MIC is the least concentration at which growth counts as inhibited. The compound `Fc1ccc(-c2nn3c(COc4cnccn4)nnc3s2)cc1` came in with a minimum inhibitory concentration (MIC) in series [2] of 1 µg/mL (≈ 3.05 µM). Usually TD50 stands for the dose at which the toxic effect under study appears in half of the subjects. As to `Fc1ccc(-n2c(-c3cccc(Cl)c3)n[nH]c2=S)cc1`, in series [3], the TD50 came out at 137 mg/kg. Besides, the selectivity ratio in series [4] came out at 3.9. In the case of `CC1CNCC(C)N1c1ccc(Nc2nccc(N3CCn4c(nnc4-c4ccc(F)c(Cl)c4)C3)n2)cc1` (stereo unspecified), the IC50 amounted to 5.52 µM in series [5], 3.59 µM in series [6], 3.69 µM in series [7] and 2.14 µM in [8].

A word on the ED50: it is the dose that gives a 50% effect, or the effect in half of the subjects. As for `O=c1c2ccccc2n2cnnc2n1-c1ccc(Cl)cc1`, the ED50 in series [9] came to 88 mg/kg. Also, the selectivity ratio in series [10] was greater than 25.5. Consider `O=c1c2c3c(sc2n2c(CN4CCN(c5ccc(Cl)cc5)CC4)nnc2n1Cc1ccccc1)CCCC3`, for which the IC50 in series [11] was 6.56 µM.

As to `O=c1c2ccccc2n2cnnc2n1-c1ccc(Br)cc1`, in series [9], the ED50 was 94.6 mg/kg. Besides, the selectivity ratio in series [10] was greater than 26.

On to `Cc1ccc2nc(Cl)c3nnc(NC(=S)Nc4ccccc4)n3c2c1`, for which the Activity in [12] was found to be 25%. For `Cc1nn(-c2ccc(Br)cc2)c(=O)n1-n1c(-c2cc3ccccc3oc2=O)cs/c1=N\c1ccc(Cl)cc1`, the IC50 in series [13], in [14] and in series [15] was 0.16 µg/mL (≈ 0.264 µM) each time. For the compound `Nn1c(Cc2ccccc2Br)nn(CC(=O)NNC(=O)c2cc3cc(Cl)cc(Cl)c3oc2=O)c1=O`, the IC50 in [16], in series [17], in series [19] and in [20] was 3.1 µg/mL (≈ 5.32 µM) in each case. Besides, the “Ratio IC50” value in series [18] was 5.2. The bioavailability is dose-corrected exposure relative to a reference, in per cent. `COc1ccc(OCc2nn3c(-c4ccc(Br)cc4)nnc3s2)cc1` showed a bioavailability in series [21] of 14%. In series [22], the “log(activity)” value is 1.7. On to `Fc1cc(Cl)cc(-c2nn3c(CN4c5ccccc5Sc5ccccc54)nnc3s2)c1`, for which the Activity in series [23] was 83.06%. Consider `CC1=NC2NC(CC(F)(F)F)=NN2C(Nc2ccc(C(F)(F)F)nc2)=C1` (stereo unspecified), for which the values for the IC50 in series [24] and in [25] were 0.053 µM and 0.094 µM, respectively. `CSc1nc(NC(=S)NCc2ccccc2)n(-c2ccc(C(=O)O)cc2)n1`: the IC50 in [26] worked out at 15.6 µM. The term EC50 denotes the concentration at which the effect is half-maximal. Take `Cc1nc(C)c(C(=O)Nc2ccc(F)c(-c3nc4ncc(C(C)(C)C)cn4n3)c2)o1`: the EC50 in [27] is 0.03 µM.

Consider `c1cncc(-c2nn3c(COc4cnccn4)nnc3s2)c1`, for which 0.4 µg/mL (≈ 1.28 µM) was the least that counted as inhibitory in [2] (MIC). `O=c1c2sccc2n2cnnc2n1-c1ccc(Cl)cc1`: the Activity in series [28] came out at 50.48%. `O=C(CCSc1nnc2n(Cc3ccccc3)c(=O)c3c4c(sc3n12)CCCC4)N1CCN(c2ccccc2)CC1`: the IC50 in series [11] amounted to 6.12 µM. Turning to `O=C(CSc1nc[nH]n1)Nc1nc2ccc(OCc3cccc(F)c3)cc2s1`, the ED50 in series [29] came to 76 mg/kg; in series [30], 50.8 mg/kg. In turn, `Cc1cc2nc(Cc3nncn3-c3ccccn3)c(=O)[nH]c2cc1C` displayed an IC50 in series [31] of less than 0.05 µM. The “Ratio IC50” value in series [32] is given as greater than 3000.

The values are drawn from ChEMBL document CHEMBL5244255, “An insight on medicinal attributes of 1,2,4-triazoles” (Eur J Med Chem, 2020).
